From patent EP4725957A1, “GROUP OF CYCLIC ALKALINE LIPOPEPTIDE COMPOUNDS, AND PREPARATION METHOD THEREFOR AND USE THEREOF” (Institute of Medicinal Biotechnology, Chinese Academy of …, priority 2023, dated 2024) come the findings set out here.

Values after ≈ are worked out from the molar mass of the structure shown. Bridge positions count the residues as written; N and C are the ends. Square brackets hold non-standard residues; d marks the D form. Peptide text beside a SMILES is read from it. * marks the point of attachment. Heptanoyl(6-Me) = CC(C)CCCCC(=O)*; Nonanoyl = CCCCCCCCC(=O)*; X1 = CC[C@H](C)CCCCC(=O)*; Heptanoyl = CCCCCCC(=O)*; Octanoyl = CCCCCCCC(=O)*; Orn = NCCC[C@H](N)C(=O)O; Dab = NCC[C@H](N)C(=O)O; Dap = NC[C@H](N)C(=O)O

What all share (assay type): cell-based
A short description of data set [1]: Nephrotoxicity assay: in vitro cytotoxicity of HK-2 cells by CCK-8 assay. The conditions noted are these: human, HK-2 cells (human renal), 72 h incubation with drug-containing medium. Summed up: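 Compounds in sterile water, diluted to final 500, 250, 200, 100, 50, 25 and 12.5 µg/mL, were applied for 72 h to human HK-2 kidney cells. Absorbance at 450 nm after 3 h CCK-8 gave viability against untreated wells, and IC50 came from logarithmic regression; three replicates.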
For orientation: Formazan colour is commonly taken as a measure of viable cells.

Data set [2] deals with Pseudomonas aeruginosa PAE19-3. The following applies: PAE19-3. In outline:
(§1)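 MIC by CLSI broth microdilution; MH broth; final drug 64–0.03 mg/L, 2-fold; inoculum (2-4) × 10^5 CFU/mL from 0.5 McFarland suspension of 18-24 h colonies; 35-37°C, 16-20 h; growth controls included.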

In data set [3] the test system is Escherichia coli ATCC BAA-2340 (KPC). The conditions noted are these: ATCC BAA-2340. Summed up: as §1
For data set [4], the system named is Acinetobacter baumannii ABA19-1. The following applies: ABA19-1. Summed up:
as §1

Data set [5] has as its system Acinetobacter baumannii NCTC 13304 (OXA-27). The conditions noted are these: NCTC 13304. Summed up:
as §1

For data set [6], the system named is Klebsiella pneumoniae KPN+19-15. The following applies: KPN+19-15. In outline:
as §1

Data set [7] relates to Pseudomonas aeruginosa ATCC 27853. The following applies: ATCC 27853. Summed up: as §1
Data set [8] concerns Klebsiella pneumoniae ATCC BAA-1705 (KPC). The following applies: ATCC BAA-1705. In outline: as §1
In data set [9] the test system is Escherichia coli ATCC BAA-2523. The conditions noted are these: ATCC BAA-2523. Summed up: as §1

In general, IC50 refers to the point on the concentration scale where inhibition reaches its midpoint. High values mean weaker potency in that assay, low ones greater potency in that assay. The MIC is the lowest concentration that inhibits growth of the organism. Higher therefore signals a need for much substance. In data set [1], `CCCCCCCC(=O)N[C@@H](CCN)C(=O)N[C@H](C(=O)N[C@H](CO)C(=O)N[C@H]1CCNC(=O)[C@H]([C@@H](C)O)NC(=O)[C@H](CCN)NC(=O)[C@H](CCCN)NC(=O)[C@H]([C@@H](C)O)NC(=O)[C@@H](Cc2ccccc2)NC(=O)[C@H](CCN)NC1=O)[C@@H](C)O` [Compound 78, Octanoyl-Dab-Thr-D-Ser-ring(4-10)[Dab-Dab-D-Phe-Thr-Orn-Dab-Thr]] (Octanoyl-[Dab]T[dS][Dab][Dab][dF]T[Orn][Dab]T; lactam 4-C) showed an IC50 at 72 h above 500 µg/mL. Also, the MIC in [2] was 64 µg/mL (≈ 54.3 µM); in data set [3], at most 0.03 µg/mL; in data set [4] it was 0.06 µg/mL (≈ 0.0509 µM); in data set [5], at most 0.03 µg/mL; in [6], 0.5 µg/mL (≈ 0.424 µM); in data set [7], above 64 µg/mL. Besides, the results for the MIC in [8] and in data set [9] were 0.25 µg/mL (≈ 0.212 µM) and at most 0.03 µg/mL, respectively.

`CCCCCCC(=O)N[C@@H](CCN)C(=O)N[C@H](C(=O)N[C@H](CO)C(=O)N[C@H]1CCNC(=O)[C@H]([C@@H](C)O)NC(=O)[C@H](CCN)NC(=O)[C@H](CCCN)NC(=O)[C@H]([C@@H](C)O)NC(=O)[C@@H](Cc2ccccc2)NC(=O)[C@H](CCN)NC1=O)[C@@H](C)O` [Compound 79, Heptanoyl-Dab-Thr-D-Ser-ring(4-10)[Dab-Dab-D-Phe-Thr-Orn-Dab-Thr]] (Heptanoyl-[Dab]T[dS][Dab][Dab][dF]T[Orn][Dab]T; lactam 4-C): the IC50 at 72 h in [1] is above 500 µg/mL. Further, the MIC in data set [2] is on record as 64 µg/mL (≈ 55 µM); in data set [3] it was 0.03 µg/mL (≈ 0.0258 µM); in [4] it was 0.06 µg/mL (≈ 0.0515 µM); in data set [5], 0.03 µg/mL (≈ 0.0258 µM); in data set [6], 0.5 µg/mL (≈ 0.429 µM); in [7], above 64 µg/mL. Besides, the MIC in data set [8] is recorded as 0.25 µg/mL (≈ 0.215 µM); in data set [9], 0.03 µg/mL (≈ 0.0258 µM).

`CCCCCCCCC(=O)N[C@@H](CCN)C(=O)N[C@H](C(=O)N[C@H](CO)C(=O)N[C@H]1CCNC(=O)[C@H]([C@@H](C)O)NC(=O)[C@H](CCN)NC(=O)[C@H](CCCN)NC(=O)[C@H]([C@@H](C)O)NC(=O)[C@@H](Cc2ccccc2)NC(=O)[C@H](CCN)NC1=O)[C@@H](C)O` [Compound 80, Nonanoyl-Dab-Thr-D-Ser-ring(4-10)[Dab-Dab-D-Phe-Thr-Orn-Dab-Thr]] (Nonanoyl-[Dab]T[dS][Dab][Dab][dF]T[Orn][Dab]T; lactam 4-C) yielded an IC50 at 72 h in data set [1] of 288 ± 19.5 µg/mL (≈ 241 µM). For the same compound, the MIC in data set [2] is 64 µg/mL (≈ 53.7 µM); in [3] it was 0.06 µg/mL (≈ 0.0503 µM); in data set [4] it was 0.06 µg/mL (≈ 0.0503 µM); in data set [5], 0.03 µg/mL (≈ 0.0252 µM); in data set [6], 0.5 µg/mL (≈ 0.419 µM); in [7], above 64 µg/mL. Further, the MIC is reported as 0.25 µg/mL (≈ 0.21 µM) in data set [8] and 0.06 µg/mL (≈ 0.0503 µM) in [9].

With `CC[C@H](C)CCCCC(=O)N[C@@H](CCN)C(=O)N[C@H](C(=O)N[C@H](CO)C(=O)N[C@H]1CCNC(=O)[C@H]([C@@H](C)O)NC(=O)[C@H](CN)NC(=O)[C@H](CCN)NC(=O)[C@H]([C@@H](C)O)NC(=O)[C@@H](Cc2ccccc2)NC(=O)[C@H](CCN)NC1=O)[C@@H](C)O` [Compound 81, (S)-6-methyloctanoyl-Dab-Thr-D-Ser-ring(4-10)[Dab-Dab-D-Phe-Thr-Dab-Dap-Thr]] (X1-[Dab]T[dS][Dab][Dab][dF]T[Dab][Dap]T; lactam 4-C), the IC50 at 72 h in data set [1] was above 500 µg/mL. The MIC in data set [2] was 64 µg/mL (≈ 55 µM); in [3] it was 0.03 µg/mL (≈ 0.0258 µM); in data set [4], 0.06 µg/mL (≈ 0.0515 µM); in data set [5] it was at most 0.03 µg/mL; in data set [6], 0.5 µg/mL (≈ 0.429 µM); in data set [7] it was above 64 µg/mL. The MIC in data set [8] is 0.25 µg/mL (≈ 0.215 µM); in data set [9], 0.03 µg/mL (≈ 0.0258 µM).

`CC(C)CCCCC(=O)N[C@@H](CCN)C(=O)N[C@H](C(=O)N[C@H](CO)C(=O)N[C@H]1CCNC(=O)[C@H]([C@@H](C)O)NC(=O)[C@H](CN)NC(=O)[C@H](CCN)NC(=O)[C@H]([C@@H](C)O)NC(=O)[C@@H](Cc2ccccc2)NC(=O)[C@H](CCN)NC1=O)[C@@H](C)O` [Compound 82, 6-methylheptanoyl-Dab-Thr-D-Ser-ring(4-10)[Dab-Dab-D-Phe-Thr-Dab-Dap-Thr]] ({Heptanoyl(6-Me)}-[Dab]T[dS][Dab][Dab][dF]T[Dab][Dap]T; lactam 4-C) gave an IC50 at 72 h in [1] above 500 µg/mL. Moreover, the MIC was 64 µg/mL (≈ 55.6 µM) in [2]; 0.03 µg/mL (≈ 0.0261 µM) in [3]; 0.06 µg/mL (≈ 0.0522 µM) in data set [4]; at most 0.03 µg/mL in data set [5]; 0.5 µg/mL (≈ 0.435 µM) in [6]; above 64 µg/mL in data set [7]. The MIC turned out to be 0.25 µg/mL (≈ 0.217 µM) in data set [8] and 0.03 µg/mL (≈ 0.0261 µM) in [9].

In the case of `CCCCCCCC(=O)N[C@@H](CCN)C(=O)N[C@H](C(=O)N[C@H](CO)C(=O)N[C@H]1CCNC(=O)[C@H]([C@@H](C)O)NC(=O)[C@H](CN)NC(=O)[C@H](CCN)NC(=O)[C@H]([C@@H](C)O)NC(=O)[C@@H](Cc2ccccc2)NC(=O)[C@H](CCN)NC1=O)[C@@H](C)O` [Compound 83, Octanoyl-Dab-Thr-D-Ser-ring(4-10)[Dab-Dab-D-Phe-Thr-Dab-Dap-Thr]] (Octanoyl-[Dab]T[dS][Dab][Dab][dF]T[Dab][Dap]T; lactam 4-C), the IC50 at 72 h in data set [1] is above 500 µg/mL. For the same compound, the MIC in data set [2] is 64 µg/mL (≈ 55.6 µM); in [3] it was 0.06 µg/mL (≈ 0.0522 µM); in [4] it was 0.06 µg/mL (≈ 0.0522 µM); in data set [5] it was at most 0.03 µg/mL; in data set [6] it was 0.5 µg/mL (≈ 0.435 µM); in [7], above 64 µg/mL. Also, the MIC in data set [8] turned out to be 0.25 µg/mL (≈ 0.217 µM); in data set [9], 0.06 µg/mL (≈ 0.0522 µM).

As to `CCCCCCC(=O)N[C@@H](CCN)C(=O)N[C@H](C(=O)N[C@H](CO)C(=O)N[C@H]1CCNC(=O)[C@H]([C@@H](C)O)NC(=O)[C@H](CN)NC(=O)[C@H](CCN)NC(=O)[C@H]([C@@H](C)O)NC(=O)[C@@H](Cc2ccccc2)NC(=O)[C@H](CCN)NC1=O)[C@@H](C)O` [Compound 84, Heptanoyl-Dab-Thr-D-Ser-ring(4-10)[Dab-Dab-D-Phe-Thr-Dab-Dap-Thr]] (Heptanoyl-[Dab]T[dS][Dab][Dab][dF]T[Dab][Dap]T; lactam 4-C), the IC50 at 72 h in data set [1] is above 500 µg/mL. Besides, the MIC in [2] is 64 µg/mL (≈ 56.3 µM); in data set [3], 0.25 µg/mL (≈ 0.22 µM); in data set [4], 0.06 µg/mL (≈ 0.0528 µM); in [5] it was 0.03 µg/mL (≈ 0.0264 µM); in data set [6] it was 0.5 µg/mL (≈ 0.44 µM); in data set [7] it was above 64 µg/mL. For the same compound, the MIC in data set [8] and in data set [9] was 0.25 µg/mL (≈ 0.22 µM) in each case.

`CCCCCCCCC(=O)N[C@@H](CCN)C(=O)N[C@H](C(=O)N[C@H](CO)C(=O)N[C@H]1CCNC(=O)[C@H]([C@@H](C)O)NC(=O)[C@H](CN)NC(=O)[C@H](CCN)NC(=O)[C@H]([C@@H](C)O)NC(=O)[C@@H](Cc2ccccc2)NC(=O)[C@H](CCN)NC1=O)[C@@H](C)O` [Compound 85, Nonanoyl-Dab-Thr-D-Ser-ring(4-10)[Dab-Dab-D-Phe-Thr-Dab-Dap-Thr]] (Nonanoyl-[Dab]T[dS][Dab][Dab][dF]T[Dab][Dap]T; lactam 4-C) returned an IC50 at 72 h in data set [1] of 357 ± 28.8 µg/mL (≈ 307 µM). The MIC in data set [2] is 64 µg/mL (≈ 55 µM); in data set [3], 0.25 µg/mL (≈ 0.215 µM); in [4] it was 0.06 µg/mL (≈ 0.0515 µM); in data set [5], 0.03 µg/mL (≈ 0.0258 µM); in data set [6], 0.5 µg/mL (≈ 0.429 µM); in data set [7], above 64 µg/mL. For the same compound, the MIC in data set [8] and in data set [9] was 0.25 µg/mL (≈ 0.215 µM) in each case.

Compound `CC[C@H](C)CCCCC(=O)N[C@@H](CCN)C(=O)N[C@H](C(=O)N[C@H](CO)C(=O)N[C@H]1CCNC(=O)[C@H]([C@@H](C)O)NC(=O)[C@H](CCCN)NC(=O)[C@H](CCN)NC(=O)[C@H]([C@@H](C)O)NC(=O)[C@@H](Cc2ccccc2)NC(=O)[C@H](CCN)NC1=O)[C@@H](C)O` [Compound 86, (S)-6-methyloctanoyl-Dab-Thr-D-Ser-ring(4-10)[Dab-Dab-D-Phe-Thr-Dab-Orn-Thr]] (X1-[Dab]T[dS][Dab][Dab][dF]T[Dab][Orn]T; lactam 4-C) registered an IC50 at 72 h in [1] above 500 µg/mL. The MIC in data set [2] is 64 µg/mL (≈ 53.7 µM); in data set [3] it was 0.03 µg/mL (≈ 0.0252 µM); in data set [4], 0.06 µg/mL (≈ 0.0503 µM); in data set [5] it was at most 0.03 µg/mL; in data set [6], 0.5 µg/mL (≈ 0.419 µM); in data set [7], above 64 µg/mL. Moreover, the MIC is recorded as 0.25 µg/mL (≈ 0.21 µM) in [8] and 0.03 µg/mL (≈ 0.0252 µM) in [9].
